Results on 25 compounds are retold here after patent US20170275270A1, “BENZYL SUBSTITUTED INDAZOLES” (Bayer Pharma Aktiengesellschaft, priority 2014, published 2017).

Each structure is given as a SMILES string. pIC50: −log10 of the molar value. Counter-ions that a name gives are not always drawn.

T1 sequence (O43683 704-1085): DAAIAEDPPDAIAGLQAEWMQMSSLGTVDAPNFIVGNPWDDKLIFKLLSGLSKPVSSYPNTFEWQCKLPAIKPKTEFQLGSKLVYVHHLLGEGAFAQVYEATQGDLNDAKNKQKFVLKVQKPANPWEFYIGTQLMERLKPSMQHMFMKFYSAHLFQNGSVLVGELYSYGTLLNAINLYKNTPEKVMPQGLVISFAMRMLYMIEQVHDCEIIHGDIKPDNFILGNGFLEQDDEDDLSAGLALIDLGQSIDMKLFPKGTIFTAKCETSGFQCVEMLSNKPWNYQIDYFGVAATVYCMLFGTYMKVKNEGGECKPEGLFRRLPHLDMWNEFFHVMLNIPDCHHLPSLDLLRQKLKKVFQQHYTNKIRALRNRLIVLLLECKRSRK

The first test has as its target T1, catalytic domain of human Bub1 (amino acids 704-1085) (Homo sapiens, UniProt O43683).
T1 construct: catalytic domain of human Bub1 (amino acids 704-1085); His6 (N); made in house; host or cells: Hi5 insect cells
The test is described as follows: Bub1 kinase assay (TR-FRET). It counts as biochemical. The conditions noted are these: 10 μM ATP, read-out: Biological Assay 1: Bub1 kinase assay median IC50. How it is done:
To this end, 100-fold concentrated compound solutions (in DMSO) were previously prepared by serial dilution (1:3.4) of 2 mM stocks in a clear low volume 384-well source microtiter plate (Greiner Bio-One, Frickenhausen, Germany), from which 50 nL of compounds were transferred into a black low volume test microtiter plate from the same supplier. […] The resulting mixture (5 μL final volume) was incubated at 22° C. during 60 min., and the reaction was stopped by the addition of 5 μL of an aqueous EDTA-solution (50 mM EDTA, in 100 mM HEPES pH 7.5 and 0.2% (w/v) bovine serum albumin) which also contained the TR-FRET detection reagents (0.2 μM streptavidin-XL665 [Cisbio Bioassays, Codolet, France] and 1 nM anti-phosho-Serine antibody [Merck Millipore, cat. #35-001] and 0.4 nM LANCE EU-W1024 labeled anti-mouse IgG antibody [Perkin-Elmer, product no. AD0077, alternatively a Terbium-cryptate-labeled anti-mouse IgG antibody from Cisbio Bioassays can be used]). The stopped reaction mixture was further incubated 1 h at 22° C. in order to allow the formation of complexes between peptides and detection reagents. Subsequently, the amount of product was evaluated by measurement of the resonance energy transfer from the Eu-chelate-antibody complex recognizing the Phosphoserine residue to the streptavidin-XL665 bound to the biotin moiety of the peptide. […] IC50 values were calculated by fitting the normalized inhibition data to a 4-parameter logistic equation (Minimum, Maximum, IC50, Hill; Y=Max+(Min−Max)/(1+(X/IC50) Hill)).
Background: Time-resolved FRET reads energy transfer from a long-lived donor to a nearby acceptor.
In the case of `CCOc1cc(F)c(Cn2nc(-c3ncc(CCN)c(Nc4ccnc(C)n4)n3)c3ccccc32)c(F)c1` [Example 2-9-22, 5-(2-aminoethyl)-2-[1-(4-ethoxy-2,6-difluorobenzyl)-1H-indazol-3-yl]-N-(2-methylpyrimidin-4-yl)pyrimidin-4-amine, salt with hydrochloric acid (1:2)], the pIC50 is 8.03.

Turning to `COCCOc1cc(F)c(Cn2nc(-c3nc(C)c(C)c(Nc4ccncc4OC)n3)c3ccccc32)c(F)c1` [Example 2-12-76, 2-{1-[2,6-difluoro-4-(2-methoxyethoxy)benzyl]-1H-indazol-3-yl}-N-(3-methoxypyridin-4-yl)-5,6-dimethylpyrimidin-4-amine], the pIC50 was 8.21.

For the compound `COCCOc1cc(F)c(Cn2nc(-c3nc(C)cc(Nc4ccncc4OC(F)(F)F)n3)c3ccccc32)c(F)c1` [Example 2-12-78, 2-{1-[2,6-difluoro-4-(2-methoxyethoxy)benzyl]-1H-indazol-3-yl}-6-methyl-N-[3-(trifluoromethoxy)pyr-idin-4-yl]pyrimidin-4-amine], the pIC50 is 7.92.

With `Cc1cc(Nc2cc(C(C)C)nc(-c3nn(Cc4c(F)cc(OCCO)cc4F)c4ccccc34)n2)c(C)cn1` [Example 2-6-30, 2-{4-[(3-{4-[(2,5-dimethylpyridin-4-yl)amino]-6-isopropylpyrimidin-2-yl}-1H-indazol-1-yl)methyl]-3,5-difluorophenoxy} ethanol], the pIC50 was 5.49.

Turning to `COCCOc1cc(F)c(Cn2nc(-c3nc(C)cc(Nc4ccncc4OC)n3)c3ccccc32)c(F)c1` [Example 2-12-77, 2-{1-[2,6-difluoro-4-(2-methoxyethoxy)benzyl]-1H-indazol-3-yl}-N-(3-methoxypyridin-4-yl)-6-methylpyrimidin-4-amine], the pIC50 was 8.17.

With `CCOc1cc(F)c(Cn2nc(-c3nc(C)cc(Nc4ccncc4O)n3)c3ccccc32)c(F)c1` [Example 2-12-80, 4-({2-[1-(4-ethoxy-2,6-difluorobenzyl)-1H-indazol-3-yl]-6-methylpyrimidin-4-yl}amino)pyridin-3-ol], the pIC50 is 7.29.

The test is the same for the next values; noted with them: Biological Assay 1: Bub1 kinase assay median IC50, 10 μM ATP.
In turn, `COCCOc1cc(F)c(Cn2nc(-c3nc4c(c(Nc5ccncc5OC)n3)CCC(C)(C)C4)c3ccccc32)c(F)c1` [Example 2-15-11, 2-{1-[2,6-difluoro-4-(2-methoxyethoxy)benzyl]-1H-indazol-3-yl}-N-(3-methoxypyridin-4-yl)-7,7-dimethyl-5,6,7,8-tetrahydroquinazolin-4-amine] gave a pIC50 of 5.77.

`COCCOc1cc(F)c(Cn2nc(-c3nc(C)cc(Nc4ccnc(C)n4)n3)c3ccccc32)c(F)c1` [Example 2-12-71, 2-{1-[2,6-difluoro-4-(2-methoxyethoxy)benzyl]-1H-indazol-3-yl}-6-methyl-N-(2-methylpyrimidin-4-yl)pyrimidin-4-amine] had a pIC50 of 7.12.

Compound `CCOc1cc(F)c(Cn2nc(-c3nc4c(c(Nc5ccncc5)n3)COC4)c3ccccc32)c(F)c1` [Example 2-14-10, 2-[1-(4-ethoxy-2,6-difluorobenzyl)-1H-indazol-3-yl]-N-(pyridin-4-yl)-5,7-dihydrofuro[3,4-d]pyrimidin-4-amine] showed a pIC50 of 8.15.

Regarding `COCCOc1cc(F)c(Cn2nc(-c3nc4c(c(Nc5ccnc(C)n5)n3)CN(CC(F)(F)F)C4)c3ccccc32)c(F)c1` [Example 2-20-16, 2-{1-[2,6-difluoro-4-(2-methoxyethoxy)benzyl]-1H-indazol-3-yl}-N-(2-methylpyrimidin-4-yl)-6-(2,2,2-trifluoroethyl)-6,7-dihydro-5H-pyrrolo[3,4-d]pyrimidin-4-amine], the pIC50 is 6.92.

Take `Cc1nccc(Nc2cc(C(C)C)nc(-c3nn(Cc4c(F)cc(OCCO)cc4F)c4ccccc34)n2)n1` [Example 2-6-28, 2-{3,5-difluoro-4-[(3-{4-isopropyl-6-[(2-methylpyrimidin-4-yl)amino]pyrimidin-2-yl}-1H-indazol-1-yl)methyl]phenoxy}ethanol]: the pIC50 was 6.29.

`COCCOc1cc(F)c(Cn2nc(-c3nc4c(c(Nc5cc(C)ncc5C)n3)CCC(C)(C)C4)c3ccccc32)c(F)c1` [Example 2-15-13, 2-{1-[2,6-difluoro-4-(2-methoxyethoxy)benzyl]-1H-indazol-3-yl}-N-(2,5-dimethylpyridin-4-yl)-7,7-dimethyl-5,6,7,8-tetrahydroquinazolin-4-amine]: the pIC50 is 7.23.

The compound `CCOc1cc(F)c(Cn2nc(-c3nc4c(c(Nc5ccncc5)n3)CCCC4)c3ccccc32)c(F)c1` [Example 2-19-21, 2-[1-(4-ethoxy-2,6-difluorobenzyl)-1H-indazol-3-yl]-N-(pyridin-4-yl)-5,6,7,8-tetrahydroquinazolin-4-amine] had a pIC50 of 7.92.

For `Cc1cnccc1Nc1nc(-c2nn(Cc3c(F)cc(O)cc3F)c3ccccc23)nc2c1CCC2` [Example 2-6-5, 3,5-difluoro-4-[(3-{4-[(3-methylpyridin-4-yl)amino]-6,7-dihydro-5H-cyclopenta[d]pyrimidin-2-yl}-1H-indazol-1-yl)methyl]phenol], the pIC50 was 8.11.

In turn, `CC(=O)Nc1cc(Nc2nc(-c3nn(Cc4c(F)cc(O)cc4F)c4ccccc34)nc3c2CCC3)ccn1` [Example 2-6-7, N-[4-({2-[1-(2,6-difluoro-4-hydroxybenzyl)-1H-indazol-3-yl]-6,7-dihydro-5H-cyclopenta[d]pyrimidin-4-yl}amino)pyridin-2-yl]acetamide] gave a negative-log IC50 (pIC50) of 8.03.

As for `Oc1cc(F)c(Cn2nc(-c3nc4c(c(Nc5ccncn5)n3)CCC4)c3ccccc32)c(F)c1` [Example 2-6-11, 3,5-difluoro-4-({3-[4-(pyrimidin-4-ylamino)-6,7-dihydro-5H-cyclopenta[d]pyrimidin-2-yl]-1H-indazol-1-yl}methyl)phenol], the pIC50 is 7.85.

As to `CCOc1cc(F)c(Cn2nc(-c3ncc(CC4OCCO4)c(Nc4ccncc4)n3)c3ccccc32)c(F)c1` [Example 2-2-15, 5-(1,3-dioxolan-2-ylmethyl)-2-[1-(4-ethoxy-2,6-difluorobenzyl)-1H-indazol-3-yl]-N-(pyridin-4-yl)pyrimidin-4-amine], the pIC50 was 7.85.

`CCOc1cc(F)c(Cn2nc(-c3nc(CN4CCOCC4)cc(Nc4ccnc(OC)c4)n3)c3ccccc32)c(F)c1` [Example 2-19-10, 2-[1-(4-ethoxy-2,6-difluorobenzyl)-1H-indazol-3-yl]-N-(2-methoxypyridin-4-yl)-6-(morpholin-4-ylmethyl)pyrimidin-4-amine] had a pIC50 of 7.03.

For the compound `CCOc1cc(F)c(Cn2nc(-c3ncc(CC4CN(CC(F)(F)F)C4)c(Nc4ccnc(NC(C)=O)c4)n3)c3ccccc32)c(F)c1` [Example 2-11-4, N-{4-[(2-[1-(4-ethoxy-2,6-difluorobenzyl)-1H-indazol-3-yl]-5-{[1-(2,2,2-trifluoroeth-yl)azetidin-3-yl]methyl}pyrimidin-4-yl)amino]pyr-idin-2-yl}acetamide], the pIC50 was 6.68.

On to `COCCOc1cc(F)c(Cn2nc(-c3ncc(C4CCNCC4)c(Nc4ccnc(C)n4)n3)c3ccccc32)c(F)c1` [Example 2-17-10, 2-{1-[2,6-difluoro-4-(2-methoxyethoxy)benzyl]-1H-indazol-3-yl}-N-(2-methylpyrimidin-4-yl)-5-(piperidin-4-yl)pyrimidin-4-amine], for which the pIC50 was 7.07.

For the compound `Cc1cc(Nc2nc(-c3nn(Cc4c(F)cc(O)cc4F)c4ccccc34)nc3c2CCC3)ccn1` [Example 2-6-8, 3,5-difluoro-4-[(3-{4-[(2-methylpyridin-4-yl)amino]-6,7-dihydro-5H-cyclopenta[d]pyrimidin-2-yl}-1H-indazol-1-yl)methyl]phenol], the pIC50 was 7.34.

For `CCOc1cc(F)c(Cn2nc(-c3nc4c(c(Nc5ccncc5C)n3)COC4)c3ccccc32)c(F)c1` [Example 2-19-18, 2-[1-(4-ethoxy-2,6-difluorobenzyl)-1H-indazol-3-yl]-N-(3-methylpyridin-4-yl)-5,7-dihydrofuro[3,4-d]pyrimidin-4-amine], the pIC50 was 7.08.

In the case of `COCCOc1cc(F)c(Cn2nc(-c3ncc(C4CC4)c(Nc4ccncc4OC)n3)c3ccccc32)c(F)c1` [Example 2-2-48, 5-cyclopropyl-2-{1-[2,6-difluoro-4-(2-methoxyethoxy)benzyl]-1H-indazol-3-yl}-N-(3-methoxypyridin-4-yl)pyrimidin-4-amine], the pIC50 was 8.43.

For `COCCOc1cc(F)c(Cn2nc(-c3ncc(C4CCN(CC(F)(F)F)CC4)c(Nc4ccncc4Cl)n3)c3ccccc32)c(F)c1` [Example 2-20-8, N-(3-chloropyridin-4-yl)-2-{1-[2,6-difluoro-4-(2-methoxyethoxy)benzyl]-1H-indazol-3-yl}-5-[1-(2,2,2-trifluoroethyl)piperidin-4-yl]pyrimidin-4-amine], the pIC50 was below 4.70.

Turning to `CCOc1cc(F)c(Cn2nc(-c3ncc(CNC=O)c(Nc4ccncc4)n3)c3ccccc32)c(F)c1` [Example 2-2-8, N-({2-[1-(4-ethoxy-2,6-difluorobenzyl)-1H-indazol-3-yl]-4-(pyridin-4-ylamino)pyrimidin-5-yl}methyl)formamide], the pIC50 is 8.00.

By pIC50 is commonly meant the IC50 on a negative log10 scale, so that one unit is a factor of ten.
